# Assay: Solubility in pharmaceutically acceptable carriers/excipients
# Assay type: physicochemical
# Protocol: The solubility of (8R,9S,10R,13S,14S,17S)-10,13-dimethyl-3-oxo-1,2,6,7,8,9,11,12,14,15,16,17-dodecahydrocyclopenta[a]phenanthren-17-yl tridecanoate was determined in the solvents (typical pharmaceutical carriers) listed below.
smiles,measurement,setting,value
"CCCCCCCCCCCCC(=O)O[C@H]1CC[C@H]2[C@@H]3CCC4=CC(=O)CC[C@]4(C)[C@H]3CC[C@]12C [testosterone tridecanoate, (8R,9S,10R,13S,14S,17S)-10,13-dimethyl-3-oxo-1,2,6,7,8,9,11,12,14,15,16,17-dodecahydrocyclopenta[a]phenanthren-17-yl tridecanoate]",Solubility mg/g at ~20-23° C.,solvent Benzyl Alcohol,322 mg/g
same,Solubility mg/g at ~20-23° C.,solvent Benzyl Benzoate,223 mg/g
same,Solubility mg/g at ~20-23° C.,solvent Castor Oil,55 mg/g
same,Solubility mg/g at ~20-23° C.,solvent Corn glycerides -Maisine,77 mg/g
same,Solubility mg/g at ~20-23° C.,solvent Corn oil,35 mg/g
same,Solubility mg/g at ~20-23° C.,solvent Cremophor RH40,10 mg/g
same,Solubility mg/g at ~20-23° C.,solvent Ethanol,27 mg/g
same,Solubility mg/g at ~20-23° C.,solvent Fatty Acid -Oleic acid,114 mg/g
same,Solubility mg/g at ~20-23° C.,solvent Medium chain glycerides-Capmul,68 mg/g
same,Solubility mg/g at ~20-23° C.,solvent Olive Oil,38 mg/g
same,Solubility mg/g at ~20-23° C.,solvent Peppermint Oil,~200 mg/g
